ChEMBL document CHEMBL1125643, “N-(5-fluorobenzothiazol-2-yl)-2-guanidinothiazole-4-carboxamide. A novel, systemically active antitumor agent effective against 3LL Lewis lung carcinoma” (J Med Chem, 1991)

Legend:
[1] = Drug related lethality is percent animals in treated groups dying prior to first tumor related death in untreated groups measured in BDF1 mice after iv administration at 10 mg/kg dose 3 days after tumor challenge; type: toxicity, organism-based; parameters: dose 10 mg/kg, route intravenous; conditions: BDF1, mus sp., in vivo, read-out: Lethality
[2] = Drug related lethality is percent animals in treated groups dying prior to first tumor related death in untreated groups measured in BDF1 mice after iv administration at 15 mg/kg dose 3 days after tumor challenge; type: toxicity, organism-based; parameters: dose 15 mg/kg, route intravenous; conditions: BDF1, mus sp., in vivo, read-out: Lethality
[3] = Drug related lethality is percent animals in treated groups dying prior to first tumor related death in untreated groups measured in BDF1 mice after iv administration at 18 mg/kg dose 3 days after tumor challenge; type: toxicity, organism-based; parameters: dose 18 mg/kg, route intravenous; conditions: BDF1, mus sp., in vivo, read-out: Lethality
[4] = Drug related lethality is percent animals in treated groups dying prior to first tumor related death in untreated groups measured in BDF1 mice after iv administration at 2.5 mg/kg dose 3 days after tumor challenge; type: toxicity, organism-based; parameters: dose 2.5 mg/kg, route intravenous; conditions: BDF1, mus sp., in vivo, read-out: Lethality
Mus sp. [5] = experiment: In vivo activity against 3LL metastasis in BDF1 mice after iv administration at 10 mg/kg dose, dosing on days 3 after tumor challenge; type: functional
Mus sp. [6] = experiment: In vivo activity against 3LL metastasis in BDF1 mice after iv administration at 18 mg/kg dose, dosing on days 3 after tumor challenge; type: functional
[7] = Drug related lethality is percent animals in treated groups dying prior to first tumor related death in untreated groups measured in BDF1 mice after iv administration at 20 mg/kg dose 3 days after tumor challenge; type: toxicity, organism-based; parameters: dose 20 mg/kg, route intravenous; conditions: BDF1, mus sp., in vivo, read-out: Lethality
[8] = Drug related lethality is percent animals in treated groups dying prior to first tumor related death in untreated groups measured in BDF1 mice after iv administration at 25 mg/kg dose 3 days after tumor challenge; type: toxicity, organism-based; parameters: dose 25 mg/kg, route intravenous; conditions: BDF1, mus sp., in vivo, read-out: Lethality
[9] = Drug related lethality is percent animals in treated groups dying prior to first tumor related death in untreated groups measured in BDF1 mice after iv administration at 30 mg/kg dose 3 days after tumor challenge; type: toxicity, organism-based; parameters: dose 30 mg/kg, route intravenous; conditions: BDF1, mus sp., in vivo, read-out: Lethality
[10] = Drug related lethality is percent animals in treated groups dying prior to first tumor related death in untreated groups measured in BDF1 mice after iv administration at 5 mg/kg dose 3 days after tumor challenge; type: toxicity, organism-based; parameters: dose 5 mg/kg, route intravenous; conditions: BDF1, mus sp., in vivo, read-out: Lethality
Mus sp. [11] = experiment: In vivo activity measured against 3LL metastasis in BDF1 mice after iv administration at 15 mg/kg dose, dosing on days 3 after tumor challenge; type: functional
Mus sp. [12] = experiment: In vivo activity measured against 3LL metastasis in BDF1 mice after iv administration at 2.5 mg/kg dose, dosing on days 3 after tumor challenge; type: functional
Mus sp. [13] = experiment: In vivo activity measured against 3LL metastasis in BDF1 mice after iv administration at 20 mg/kg dose, dosing on days 3 after tumor challenge; type: functional
Mus sp. [14] = experiment: In vivo activity measured against 3LL metastasis in BDF1 mice after iv administration at 25 mg/kg dose, dosing on days 3 after tumor challenge; type: functional
Mus sp. [15] = experiment: In vivo activity measured against 3LL metastasis in BDF1 mice after iv administration at 5 mg/kg dose, dosing on days 3 after tumor challenge; type: functional
Mus sp. [16] = experiment: In vivo activity measured against 3LL metastasis in BDF1 mice after ip administration at 10 mg/kg dose, dosing on days 3 after tumor challenge; type: functional, organism-based; parameters: dose 10 mg/kg
Mus sp. [17] = experiment: In vivo activity measured against 3LL metastasis in BDF1 mice after ip administration at 5 mg/kg dose, dosing on days 3 after tumor challenge; type: functional, organism-based; parameters: dose 5 mg/kg
[18] = Drug related lethality is percent animals in treated groups dying prior to first tumor related death in untreated groups measured in BDF1 mice after ip administration at 50 mg/kg dose 2-4 days after tumor challenge; type: toxicity, organism-based; parameters: dose 50 mg/kg, route intraperitoneal; conditions: BDF1, mus sp., in vivo, read-out: Lethality
Mus sp. [19] = experiment: In vivo activity measured against 3LL metastasis in BDF1 mice after ip administration at 100 mg/kg dose, dosing on days 2-4 after tumor challenge; type: functional; conditions: route intraperitoneal
Mus sp. [20] = experiment: In vivo activity measured against 3LL metastasis in BDF1 mice after ip administration at 100 mg/kg dose, dosing on days 3-6 after tumor challenge; type: functional; conditions: route intraperitoneal
Mus sp. [21] = experiment: In vivo activity measured against 3LL metastasis in BDF1 mice after ip administration at 200 mg/kg dose, dosing on days 2-4 after tumor challenge; type: functional; conditions: route intraperitoneal
Mus sp. [22] = experiment: In vivo activity measured against 3LL metastasis in BDF1 mice after ip administration at 25 mg/kg dose, dosing on days 2-4 after tumor challenge; type: functional; conditions: route intraperitoneal
Mus sp. [23] = experiment: In vivo activity measured against 3LL metastasis in BDF1 mice after ip administration at 50 mg/kg dose, dosing on days 2-4 after tumor challenge; type: functional; conditions: route intraperitoneal
Mus sp. [24] = experiment: In vivo activity measured against 3LL metastasis in BDF1 mice after ip administration at 50 mg/kg dose, dosing on days 3-6 after tumor challenge; type: functional; conditions: route intraperitoneal
[25] = Drug related lethality is percent animals in treated groups dying prior to first tumor related death in untreated groups measured in BDF1 mice after ip administration at 25 mg/kg dose 2-4 days after tumor challenge; type: toxicity, organism-based; parameters: dose 25 mg/kg, route intraperitoneal; conditions: BDF1, mus sp., in vivo, read-out: Lethality
[26] = Drug related lethality is percent animals in treated groups dying prior to first tumor related death in untreated groups measured in BDF1 mice after ip administration at 100 mg/kg dose 2-4 days after tumor challenge; type: toxicity, organism-based; parameters: dose 100 mg/kg, route intraperitoneal; conditions: BDF1, mus sp., in vivo, read-out: Lethality
[27] = Drug related lethality is percent animals in treated groups dying prior to first tumor related death in untreated groups measured in BDF1 mice after ip administration at 100 mg/kg dose 3-6 days after tumor challenge; type: toxicity, organism-based; parameters: dose 100 mg/kg, route intraperitoneal; conditions: BDF1, mus sp., in vivo, read-out: Lethality
[28] = Drug related lethality is percent animals in treated groups dying prior to first tumor related death in untreated groups measured in BDF1 mice after ip administration at 200 mg/kg dose 2-4 days after tumor challenge; type: toxicity, organism-based; parameters: dose 200 mg/kg, route intraperitoneal; conditions: BDF1, mus sp., in vivo, read-out: Lethality

COc1cccc2c1C(=O)c1c(O)c3c(c(O)c1C2=O)C[C@@](O)(C(=O)CO)C[C@@H]3O[C@H]1C[C@H](N)[C@H](O)[C@H](C)O1 [DOXORUBICIN]
mortality at 72 h [1]: 0%
mortality at 72 h [2]: 21%
mortality at 72 h [3]: 0%
mortality at 72 h [4]: 0%
T/C (Mus sp. [5]): 137%
T/C (Mus sp. [6]): 191%
mortality at 72 h [7]: 15%
mortality at 72 h [8]: 72%
mortality at 72 h [9]: 100%
mortality at 72 h [10]: 0%
T/C (Mus sp. [11]): 215%
T/C (Mus sp. [12]): 120%
T/C (Mus sp. [13]): 189%
T/C (Mus sp. [14]): 197%
T/C (Mus sp. [15]): 115%

CISPLATIN
T/C (Mus sp. [16]): 116%
T/C (Mus sp. [17]): 112%

O=c1[nH]cc(F)c(=O)[nH]1 [FLUOROURACIL]
mortality [18]: 0%
T/C (Mus sp. [19]): 127%
T/C (Mus sp. [20]): 125%
T/C (Mus sp. [21]): 141%
T/C (Mus sp. [22]): 114%
T/C (Mus sp. [23]): 118%
T/C (Mus sp. [24]): 109%
mortality [25]: 0%
mortality [26]: 0%
mortality [27]: 14%
mortality [28]: 28%
